The results in this text go back to patent publication US20230159597A1 (priority 2020, published 2023).

pIC50: −log10 of the molar value. [ ]: non-standard residue; d: D form. The star is where a group is joined. X1 = CC(C)CCC[C@@H](C)[C@H]1CC[C@H]2[C@@H]3CC=C4C[C@@H](OC(=O)C*)CC[C@]4(C)[C@H]3CC[C@]12C; PEG4 = NCCOCCOCCOCCOCCC(=O)O

One assay addresses SARS CoV-2 glycoprotein (Severe acute respiratory syndrome coronavirus 2, UniProt P0DTC2). The assay is described as follows: cell-based.
Another assay concerns SARS-CoV-2. It is filed as cell-based.

On to `CC[C@H](C)[C@H](NC(=O)CNC(=O)[C@H](CO)NC(=O)CNC(=O)[C@H](CCCNC(=N)N)NC(=O)[C@H](CCCNC(=N)N)NC(=O)[C@H](CCCNC(=N)N)NC(=O)[C@H](CCC(N)=O)NC(=O)[C@H](CCCNC(=N)N)NC(=O)[C@H](CCCNC(=N)N)NC(=O)[C@H](CCCCN)NC(=O)[C@H](CCCCN)NC(=O)[C@H](CCCNC(=N)N)NC(=O)CNC(=O)[C@H](Cc1ccc(O)cc1)NC(C)=O)C(=O)N[C@@H](CCC(=O)O)C(=O)N1CCC[C@H]1C(=O)N[C@@H](Cc1c[nH]cn1)C(=O)N[C@@H](CC(=O)O)C(=O)N[C@@H](Cc1c[nH]c2ccccc12)C(=O)N[C@H](C(=O)N[C@@H](CCCCN)C(=O)N[C@@H](CC(N)=O)C(=O)N[C@H](C(=O)N[C@H](C(=O)N[C@@H](CC(=O)O)C(=O)N[C@@H](CCCCN)C(=O)N[C@H](C(=O)N[C@@H](CC(=O)O)C(=O)N[C@@H](CCC(N)=O)C(=O)N[C@H](C(=O)N[C@H](C(=O)N[C@@H](Cc1c[nH]cn1)C(=O)N[C@@H](CC(=O)O)C(=O)N[C@@H](Cc1ccccc1)C(=O)N[C@H](C(=O)N[C@@H](CC(=O)O)C(=O)N[C@@H](CCCCN)C(=O)NCC(=O)N[C@@H](CO)C(=O)NCC(=O)N[C@@H](CO)C(=O)NCC(=O)N[C@@H](CSCC(=O)NCCOCCOCCOCCOCCC(=O)O[C@H]1CC[C@@]2(C)C(=CC[C@H]3[C@@H]4CC[C@H]([C@H](C)CCCC(C)C)[C@@]4(C)CC[C@@H]32)C1)C(N)=O)C(C)C)[C@@H](C)CC)[C@@H](C)CC)[C@@H](C)CC)[C@@H](C)O)[C@@H](C)CC)[C@@H](C)O` [TAT-EBO-PEG4-Chol], for which the values for the pIC50 with ZEBOV Mayinga, in the assay on ZEBOV Gueckedou C07 and in the assay with Bundibugyo EBOV were 7.30, 7.70 and 7.15, respectively. Moreover, the Max % inh in the assay with ZEBOV Mayinga was determined as 97.9%; with ZEBOV Gueckedou C07 it was 97.5%; in the assay with Bundibugyo EBOV, 98.5%.

On SARS CoV-2 glycoprotein, “Ac-SLTQINTTLLNLEYEMKKLEEVVKKLEESYIDLKELGSG[PEG4]C(X1)-NH2 [MERS lipid-peptide]” had an IC90 of 200 nM. Besides, in the assay on SARS-CoV-2, the “reduction in SARS-CoV-2 infection” value was found to be 100%.

Consider `CC[C@H](C)[C@H](NC(=O)CNC(=O)[C@H](CO)NC(=O)CNC(=O)[C@H](CCCNC(=N)N)NC(=O)[C@H](CCCNC(=N)N)NC(=O)[C@H](CCCNC(=N)N)NC(=O)[C@H](CCC(N)=O)NC(=O)[C@H](CCCNC(=N)N)NC(=O)[C@H](CCCNC(=N)N)NC(=O)[C@H](CCCCN)NC(=O)[C@H](CCCCN)NC(=O)[C@H](CCCNC(=N)N)NC(=O)CNC(=O)[C@H](Cc1ccc(O)cc1)NC(C)=O)C(=O)N[C@@H](CCC(=O)O)C(=O)N1CCC[C@H]1C(=O)N[C@@H](Cc1c[nH]cn1)C(=O)N[C@@H](CC(=O)O)C(=O)N[C@@H](Cc1c[nH]c2ccccc12)C(=O)N[C@H](C(=O)N[C@@H](CCCCN)C(=O)N[C@@H](CC(N)=O)C(=O)N[C@H](C(=O)N[C@H](C(=O)N[C@@H](CC(=O)O)C(=O)N[C@@H](CCCCN)C(=O)N[C@H](C(=O)N[C@@H](CC(=O)O)C(=O)N[C@@H](CCC(N)=O)C(=O)N[C@H](C(=O)N[C@H](C(=O)N[C@@H](Cc1c[nH]cn1)C(=O)N[C@@H](CC(=O)O)C(=O)N[C@@H](Cc1ccccc1)C(=O)N[C@H](C(=O)N[C@@H](CC(=O)O)C(=O)N[C@@H](CCCCN)C(=O)NCC(=O)N[C@@H](CO)C(=O)NCC(=O)N[C@@H](CO)C(=O)NCC(=O)N[C@@H](CSCC(=O)NCCOCCOCCOCCOCCC(=O)Oc1c(C)c(C)c2c(c1C)CC[C@@](C)(CCC[C@H](C)CCC[C@H](C)CCCC(C)C)O2)C(N)=O)C(C)C)[C@@H](C)CC)[C@@H](C)CC)[C@@H](C)CC)[C@@H](C)O)[C@@H](C)CC)[C@@H](C)O` [TAT-EBO-PEG4-Toco], for which the negative-log IC50 (pIC50) was 6.15 in the assay with ZEBOV Mayinga, 7.00 in the assay with ZEBOV Gueckedou C07 and 6.51 in the assay with Bundibugyo EBOV. Moreover, the Max % inh with ZEBOV Mayinga is given as 96.9%; in the assay with ZEBOV Gueckedou C07, 100%; with Bundibugyo EBOV it was 100%.

A word on the pIC50: it is −log10 of the IC50, conventionally taken in molar units. A lower pIC50 goes with a large IC50. The term IC90 denotes the point of the concentration-response curve where the effect stands at 90%.
